For experiment [1], the target named is T1, BCDIN3D (Homo sapiens, UniProt Q7Z5W3).
T1 sequence (Q7Z5W3 1-292): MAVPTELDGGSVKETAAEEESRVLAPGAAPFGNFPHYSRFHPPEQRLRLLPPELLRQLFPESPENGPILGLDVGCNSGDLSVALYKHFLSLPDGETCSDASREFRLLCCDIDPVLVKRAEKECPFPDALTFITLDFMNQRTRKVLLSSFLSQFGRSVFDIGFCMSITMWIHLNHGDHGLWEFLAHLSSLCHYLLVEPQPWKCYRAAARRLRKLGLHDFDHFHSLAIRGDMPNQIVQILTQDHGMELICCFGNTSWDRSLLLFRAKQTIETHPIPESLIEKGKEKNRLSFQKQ
Put plainly: BCDIN3D IC50 RFMS (RapidFire) assay with mini-helix. Conditions: mini-helix substrate 0.2 μM, SAM 6 μM, 25 nM enzyme. The class given is biochemical. In outline: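 SAH formation was measured by RapidFire mass spectrometry with D4- and 13C10-SAH internal standards after TCA quench. Substrates 6 μM SAM and 0.2 μM mini-helix reacted 1 h at 37 °C with 25 nM enzyme, which had been preincubated 10 min with compound (1% DMSO) in Tris pH 8.0 buffer with DTT, EDTA, BSA.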

The target of experiment [2] is T1, BCDIN3D. Briefly: BCDIN3D InCellPulse thermal stability assay in transfected A549 cells. Conditions: transiently transfected A549 cells, heat shock 58° C. 15 min. It is filed as cell-based. In outline:
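Thermal stabilisation read-out: after a 15 min 58 °C heat shock, ePL-tagged BCDIN3D in transiently transfected A549 cells (1500/well) was quantified by enzyme-fragment complementation luminescence. Compounds were pre-incubated with cells 1 h at 37 °C, 0.6% DMSO final.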

The IC50 is the midpoint of a concentration-inhibition curve. Lower therefore signals greater potency. For the compound `CC(C)(C)Nc1nc(NC[C@H](N)c2ccccc2)nc2c1cnn2C1CC1` [Compound 4.121, N6-[(2R)-2-amino-2-phenyl-ethyl]-N4-tert-butyl-1-cyclopropyl-pyrazolo[3,4-d]pyrimidine-4,6-diamine], the IC50 in experiment [1] was determined as 6450 nM; in experiment [2] it was 4810 nM.

As to `CC(C)[C@@H](C)Nc1nc(NC[C@H](N)c2ccccc2)nc2c1cnn2C` [Compound 4.122, N6-[(2R)-2-amino-2-phenylethyl]-1-methyl-N4-[(2R)-3-methylbutan-2-yl]-1H-pyrazolo[3,4-d]pyrimidine-4,6-diamine], the 50% inhibitory concentration (IC50) in experiment [1] came to 120 nM; in experiment [2], 220 nM.

As for `CC(C)[C@H](C)Nc1nc(NC[C@H](N)c2ccccc2)nc2c1cnn2C` [Compound 4.123, N6-[(2R)-2-amino-2-phenylethyl]-1-methyl-N4-[(2S)-3-methylbutan-2-yl]-1H-pyrazolo[3,4-d]pyrimidine-4,6-diamine], the values for the IC50 in experiment [1] and in experiment [2] were 1410 nM and 3560 nM, respectively.

For `Cn1ncc2c(NC3CC4(CC(O)C4)C3)nc(NC[C@H](N)c3ccccc3)nc21` (stereo partly drawn) [Compound 4.124, 6-[(6-{[(2R)-2-amino-2-phenylethyl]amino}-1-methyl-1H-pyrazolo[3,4-d]pyrimidin-4-yl)amino]spiro[3.3]heptan-2-ol], the half-inhibitory concentration (IC50) was 290 nM in experiment [1] and 570 nM in experiment [2].

Take `Cn1ncc2c(NC3CCC(C(F)(F)F)CC3)nc(NC[C@H](N)c3ccccc3)nc21` (stereo partly drawn) [Compound 4.125, N6-[(2R)-2-amino-2-phenylethyl]-1-methyl-N4-[4-(trifluoromethyl)cyclohexyl]-1H-pyrazolo[3,4-d]pyrimidine-4,6-diamine]: the IC50 in experiment [1] was 450 nM; in experiment [2], 2310 nM.

As for `Cn1ncc2c(N[C@H]3CCC(F)(F)C3)nc(NC[C@H](N)c3ccccc3)nc21` [Compound 4.126, N6-[(2R)-2-amino-2-phenylethyl]-N4-[(1S)-3,3-difluorocyclopentyl]-1-methyl-1H-pyrazolo[3,4-d]pyrimidine-4,6-diamine], the IC50 worked out at 450 nM in experiment [1] and 580 nM in experiment [2].

As to `Cn1ncc2c(NC3(C)CCOCC3)nc(NC[C@H](N)c3ccccc3)nc21` [Compound 4.127, N6-[(2R)-2-amino-2-phenylethyl]-1-methyl-N4-(4-methyloxan-4-yl)-1H-pyrazolo[3,4-d]pyrimidine-4,6-diamine], the IC50 in experiment [1] came out at 6770 nM; in experiment [2] it was 2240 nM.

On to `Cc1nn(C)c2nc(NC[C@H](N)c3ccccc3)nc(NC(C)(C)C)c12` [Compound 4.128, N6-[(2R)-2-amino-2-phenylethyl]-N4-tert-butyl-1,3-dimethyl-1H-pyrazolo[3,4-d]pyrimidine-4,6-diamine], for which the concentration for half-maximal inhibition (IC50) in experiment [1] was 1010 nM; in experiment [2], 1290 nM.

Consider `C[C@@H](Nc1nc(NC[C@H](N)c2ccccc2)nc2c1cnn2C)C1CC1` [Compound 4.129, N6-[(2R)-2-amino-2-phenylethyl]-N4-[(1R)-1-cyclopropylethyl]-1-methyl-1H-pyrazolo[3,4-d]pyrimidine-4,6-diamine], for which the half-maximal inhibitory concentration (IC50) was 180 nM in experiment [1] and 290 nM in experiment [2].

For `CC(C)Cc1nc(NCC(N)c2ccccc2)nc2c1cnn2C` (centres unmarked) [Compound 4.130, N2-[1-methyl-4-(2-methylpropyl)-1H-pyrazolo[3,4-d]pyrimidin-6-yl]-1-phenylethane-1,2-diamine], the IC50 in experiment [1] is 6010 nM; in experiment [2], 11200 nM.

With `Cc1ccc(CNc2nc(NCC(N)c3ccccn3)nc3c2cnn3C)cc1Cl` (centres unmarked) [Compound 5.02], the 50% inhibitory concentration (IC50) in experiment [1] was 217 nM; in experiment [2] it was 944 nM.

`Cn1ncc2c(Nc3ccc(C(F)(F)F)cc3)nc(NCC(N)c3ccccn3)nc21` (centres unmarked) [Compound 5.03, 6-N-(2-amino-2-pyridin-2-ylethyl)-1-methyl-4-N-[4-(trifluoromethyl)phenyl]pyrazolo[3,4-d]pyrimidine-4,6-diamine]: the values for the half-inhibitory concentration (IC50) in experiment [1] and in experiment [2] were 89.4 nM and 436 nM, respectively.

As to `CNc1nc(NCC(N)c2cccc(C#N)c2)nc2c1cnn2C` (centres unmarked) [Compound 5.04, 3-[1-Amino-2-[[1-methyl-4-(methylamino)pyrazolo[3,4-d]pyrimidin-6-yl]amino]ethyl]benzonitrile], the half-inhibitory concentration (IC50) was 694 nM in experiment [1] and 3640 nM in experiment [2].

`C#Cc1cccc(C(N)CNc2nc(NC(C)(C)C)c3cnn(C)c3n2)c1` (centres unmarked) [Compound 5.05, N6-[2-Amino-2-(3-ethynylphenyl)ethyl]-N4-tert-butyl-1-methyl-pyrazolo[3,4-d]pyrimidine-4,6-diamine]: the results for the IC50 in experiment [1] and in experiment [2] were 51.8 nM and 68.3 nM, respectively.

In the case of `Cn1ncc2c(NC(C)(C)C)nc(NCC(N)c3ccccn3)nc21` (centres unmarked) [Compound 5.06, N6-[2-amino-2-(2-pyridyl)ethyl]-N4-tert-butyl-1-methyl-pyrazolo[3,4-d]pyrimidine-4,6-diamine], the concentration for half-maximal inhibition (IC50) in experiment [1] came out at 1100 nM; in experiment [2] it was 1110 nM.

With `Cc1ccc(CNc2nc(NCC(N)c3cccnc3)nc3c2cnn3C)cc1Cl` (centres unmarked) [Compound 5.07, 6-N-(2-amino-2-pyridin-3-ylethyl)-4-N-[(3-chloro-4-methylphenyl)methyl]-1-methylpyrazolo[3,4-d]pyrimidine-4,6-diamine], the values for the half-maximal inhibitory concentration (IC50) in experiment [1] and in experiment [2] were 135 nM and 882 nM, respectively.

With `Cn1ncc2c(NC(C)(C)C)nc(NCC(N)c3cccnc3)nc21` (centres unmarked) [Compound 5.08, N6-[2-amino-2-(3-pyridyl)ethyl]-N4-tert-butyl-1-methyl-pyrazolo[3,4-d]pyrimidine-4,6-diamine], the half-inhibitory concentration (IC50) in experiment [1] was found to be 615 nM; in experiment [2], 1170 nM.

Take `Cn1ncc2c(Nc3ccc(C(F)(F)F)cc3)nc(NCC(N)c3ccccc3Cl)nc21` (centres unmarked) [Compound 5.09, 6-N-[2-amino-2-(2-chlorophenyl)ethyl]-1-methyl-4-N-[4-(trifluoromethyl)phenyl]pyrazolo[3,4-d]pyrimidine-4,6-diamine]: the IC50 in experiment [1] turned out to be 127 nM; in experiment [2], 55.9 nM.

With `Cn1ncc2c(NC(C)(C)C)nc(NCC(N)c3ccccc3Cl)nc21` (centres unmarked) [Compound 5.10, N6-[2-amino-2-(2-chlorophenyl)ethyl]-N4-tert-butyl-1-methyl-pyrazolo[3,4-d]pyrimidine-4,6-diamine], the IC50 in experiment [1] amounted to 495 nM; in experiment [2], 462 nM.

Consider `Cn1ncc2c(NC(C)(C)C)nc(NC[C@H](N)c3ccccc3Cl)nc21` [Compound 5.11, N6-[(2R)-2-amino-2-(2-chlorophenyl)ethyl]-N4-tert-butyl-1-methyl-pyrazolo[3,4-d]pyrimidine-4,6-diamine], for which the half-maximal inhibitory concentration (IC50) was found to be 321 nM in experiment [1] and 457 nM in experiment [2].

`Cc1ccc(CNc2nc(NCC(N)c3ccccc3F)nc3c2cnn3C)cc1Cl` (centres unmarked) [Compound 5.12, 6-N-[2-amino-2-(2-fluorophenyl)ethyl]-4-N-[(3-chloro-4-methylphenyl)methyl]-1-methylpyrazolo[3,4-d]pyrimidine-4,6-diamine]: the IC50 in experiment [1] amounted to 345 nM; in experiment [2] it was 643 nM.

With `Cn1ncc2c(NC(C)(C)C)nc(NCC(N)c3ccccc3F)nc21` (centres unmarked) [Compound 5.13, N6-[2-amino-2-(2-fluorophenyl)ethyl]-N4-tert-butyl-1-methyl-pyrazolo[3,4-d]pyrimidine-4,6-diamine], the IC50 in experiment [1] was determined as 383 nM; in experiment [2], 525 nM.

For `[2H]C([2H])([2H])n1ncc2c(NC(C)(C)C)nc(NCC(N)c3ccccc3F)nc21` (centres unmarked) [Compound 5.14, N6-[2-amino-2-(2-fluorophenyl)ethyl]-N4-tert-butyl-1-(trideuteriomethyl)pyrazolo[3,4-d]pyrimidine-4,6-diamine], the half-maximal inhibitory concentration (IC50) in experiment [1] was 294 nM; in experiment [2], 429 nM.

In the case of `CC(C)Nc1nc(NC[C@H](N)c2cccc(Br)c2)nc2c1cnn2C` [Compound 5.15, N6-[(2R)-2-amino-2-(3-bromophenyl)ethyl]-N4-isopropyl-1-methyl-pyrazolo[3,4-d]pyrimidine-4,6-diamine], the half-inhibitory concentration (IC50) in experiment [1] came out at 28.4 nM; in experiment [2] it was 47.1 nM.

As to `Cn1ncc2c(NC(C)(C)C(F)(F)F)nc(NC[C@H](N)c3cccc(Br)c3)nc21` [Compound 5.16, N6-[(2R)-2-amino-2-(3-bromophenyl)ethyl]-1-methyl-N4-(2,2,2-trifluoro-1,1-dimethyl-ethyl)pyrazolo[3,4-d]pyrimidine-4,6-diamine], the 50% inhibitory concentration (IC50) in experiment [1] was 41.7 nM; in experiment [2], 38.5 nM.

With `CNc1nc(NCC(N)c2cccc(Br)c2)nc2c1cnn2C` (centres unmarked) [Compound 5.17, 6-N-[2-amino-2-(3-bromophenyl)ethyl]-4-N,1-dimethylpyrazolo[3,4-d]pyrimidine-4,6-diamine], the IC50 amounted to 470 nM in experiment [1] and 1870 nM in experiment [2].

Regarding `Cn1ncc2c(NC(C)(C)C)nc(NCC(N)c3cccc(Br)c3)nc21` (centres unmarked) [Compound 5.18, N6-[2-amino-2-(3-bromophenyl)ethyl]-N4-tert-butyl-1-methyl-pyrazolo[3,4-d]pyrimidine-4,6-diamine], the 50% inhibitory concentration (IC50) came to 47 nM in experiment [1] and 27.8 nM in experiment [2].

For the compound `CC(C)Nc1nc(NCC(N)c2ccc(Br)cc2)nc2c1cnn2C` (centres unmarked) [Compound 5.19, 6-N-[2-amino-2-(4-bromophenyl)ethyl]-1-methyl-4-N-propan-2-ylpyrazolo[3,4-d]pyrimidine-4,6-diamine], the half-maximal inhibitory concentration (IC50) in experiment [1] was 375 nM; in experiment [2] it was 767 nM.

The values are drawn from patent US20220370453A1 (Storm Therapeutics Ltd, priority 2019, published 2022).
